{"source": "ChEMBL document CHEMBL5120867", "about": "“Hernandezine Regulates Proliferation and Autophagy-Induced Apoptosis in Melanoma Cells” (J Nat Prod, 2022)", "key": {"A-375 [1]": {"system": "A-375", "test": "Induction of cell cycle arrest in human A-375 cells assessed as accumulation at G0/G1 phase incubated for 24 hrs in presence of AG490 by PI staining based flow cytometry analysis (reference value: 56.69 %)", "format": "functional"}, "B16 [2]": {"system": "B16", "test": "Induction of apoptosis in mouse B16 cells assessed as late apoptotic cells preincubated for 2 hrs with […] followed by compound addition and measured after 24 hrs by Annexin-V-FITC/PI-staining based flow cytometry (reference value: 5.7 %)", "format": "functional"}, "A-375 [3]": {"system": "A-375", "test": "Induction of autophagy in human A-375 cells assessed as increase in phosphorylated AMPK at 7 uM incubated for 6 to 24 hrs by Western blotting analysis", "format": "functional, cell-based", "conditions": "time 6-24 hrs"}, "B16 [4]": {"system": "B16", "test": "Induction of apoptosis in mouse B16 cells assessed as cytoplasmic shrinkage at 5 to 7 uM incubated for 24 hrs by Hoechst 33258 staining based fluorescence microscopy", "format": "functional, cell-based", "conditions": "dose 5-7 µM"}, "A-375 [5]": {"system": "A-375", "test": "Upregulation of p27 accumulation in human A-375 cells at 6 to 8 uM measured after 12 to 24 hrs by western blot assay", "format": "functional, cell-based", "conditions": "dose 6-8 µM, time 12-24 hrs"}, "A-375 [6]": {"system": "A-375", "test": "Downregulation of CDK4 protein expression in human A-375 cells at 6 to 8 uM measured after 12 to 24 hrs by western blot assay", "format": "functional, cell-based", "conditions": "dose 6-8 µM, time 12-24 hrs"}, "A-375 [7]": {"system": "A-375", "test": "Induction of autophagy in human A-375 cells assessed as increase in LC3-II expression at 7 uM incubated for 6 to 24 hrs by […]", "format": "functional, cell-based", "conditions": "time 6-24 hrs"}, "B16 [8]": {"system": "B16", "test": "Cytotoxicity against mouse B16 cells assessed as reduction in cell viability incubated for 24 hrs by MTT assay", "format": "functional, cell-based", "conditions": "B16, 24 h"}, "A-375 [9]": {"system": "A-375", "test": "Cytotoxicity against human A-375 cells assessed as change in cell morphology with loss of […] contacts at 6 to 8 uM incubated for 24 hrs by […] phase contrast microscope analysis", "format": "functional", "conditions": "dose 6-8 µM"}, "A-375 [10]": {"system": "A-375", "test": "Induction of apoptosis in human A-375 cells assessed as […] of Bax/Bcl-2 protein level at 6 to 8 uM incubated for 24 hrs by Western blot analysis", "format": "functional, cell-based", "conditions": "dose 6-8 µM"}, "A-375 [11]": {"system": "A-375", "test": "Induction of apoptosis in human A-375 cells assessed as late apoptotic cells at 6 uM after 24 hrs by Annexin-V-FITC/PI-staining based flow cytometry (reference value: 5.7 %)", "format": "functional"}, "B16 [12]": {"system": "B16", "test": "Induction of cell cycle arrest in mouse B16 cells assessed as accumulation at G2/M phase incubated for 24 hrs in presence of AG490 by PI staining based flow cytometry analysis (reference value: 0.88 %)", "format": "functional"}, "A-375 [13]": {"system": "A-375", "test": "Induction of cell cycle arrest in human A-375 cells assessed as accumulation at S phase at 6 uM incubated for 24 hrs by PI staining based flow cytometry analysis (reference value: 28.83 %)", "format": "functional"}, "B16 [14]": {"system": "B16", "test": "Induction of cell cycle arrest in mouse B16 cells assessed as accumulation at G0/G1 phase incubated for 24 hrs in presence of AG490 by PI staining based flow cytometry analysis (reference value: 56.59 %)", "format": "functional"}, "B16 [15]": {"system": "B16", "test": "Inhibition of autophagy in mouse B16 cells harbouring mCherry-EGFP-LC3 assessed as increase in number of autophagosomes at 6 uM for 8 to 24 hrs by laser scanning confocal microscopic analysis", "format": "functional, cell-based", "conditions": "time 8-24 hrs"}, "B16 [16]": {"system": "B16", "test": "Induction of cell cycle arrest in mouse B16 cells assessed as accumulation at S phase at 5 uM incubated for 24 hrs by PI staining based flow cytometry analysis (reference value: 33.46 %)", "format": "functional"}, "B16 [17]": {"system": "B16", "test": "Induction of cell cycle arrest in mouse B16 cells assessed as accumulation at G2/M phase at 5 uM incubated for 24 hrs by PI staining based flow cytometry analysis (reference value: 4.70 %)", "format": "functional"}, "B16 [18]": {"system": "B16", "test": "Induction of cell cycle arrest in mouse B16 cells assessed as accumulation at G2/M phase at 6 uM incubated for 24 hrs by PI staining based flow cytometry analysis (reference value: 4.70 %)", "format": "functional"}, "B16 [19]": {"system": "B16", "test": "Induction of cell cycle arrest in mouse B16 cells assessed as accumulation at G0/G1 phase incubated for 24 hrs by PI staining based flow cytometry analysis (reference value: 56.59 %)", "format": "functional"}, "A-375 [20]": {"system": "A-375", "test": "Induction of cell cycle arrest in human A-375 cells assessed as accumulation at G0/G1 phase at 6 uM incubated for 24 hrs by PI staining based flow cytometry analysis (reference value: 69.68 %)", "format": "functional"}, "B16 [21]": {"system": "B16", "test": "Induction of apoptosis in mouse B16 cells assessed as early apoptotic cells preincubated for 2 hrs with 3-MA followed by compound addition and measured after 24 hrs by Annexin-V-FITC/PI-staining based flow cytometry (reference value: 0.9 %)", "format": "functional"}, "A-375 [22]": {"system": "A-375", "test": "Induction of apoptosis in human A-375 cells assessed as late apoptotic cells at 7 uM after 24 hrs by Annexin-V-FITC/PI-staining based flow cytometry (reference value: 5.7 %)", "format": "functional"}, "B16 [23]": {"system": "B16", "test": "Induction of cell cycle arrest in mouse B16 cells assessed as accumulation at G0/G1 phase at 5 uM incubated for 24 hrs by PI staining based flow cytometry analysis (reference value: 61.83 %)", "format": "functional"}, "B16 [24]": {"system": "B16", "test": "Induction of apoptosis in mouse B16 cells assessed as late apoptotic cells at 6 uM measured after 24 hrs by Annexin-V-FITC/PI-staining based flow cytometry (reference value: 4.4 %)", "format": "functional"}, "HepG2": {"system": "HepG2", "test": "Cytotoxicity against human HepG2 cells assessed as reduction in cell viability by MTT assay", "format": "functional, cell-based"}, "A-375 [25]": {"system": "A-375", "test": "Cytotoxicity against human A-375 cells assessed as reduction in cell viability measured after 24 hrs by MTT assay", "format": "functional, cell-based", "conditions": "A-375, 24 h"}, "A-375 [26]": {"system": "A-375", "test": "Induction of apoptosis in human A-375 cells assessed as early apoptotic cells at 6 uM after 24 hrs by Annexin-V-FITC/PI-staining based flow cytometry (reference value: 1.4 %)", "format": "functional"}, "A-375 [27]": {"system": "A-375", "test": "Induction of autophagy in human A-375 cells assessed as increase in autophagosome with central pulp at 7 uM incubated for 6 to 24 hrs by transmission electron microscopy", "format": "functional, cell-based", "conditions": "time 6-24 hrs"}, "B16 [28]": {"system": "B16", "test": "Induction of apoptosis in mouse B16 cells assessed as early apoptotic cells at 5 uM measured after 24 hrs by Annexin-V-FITC/PI-staining based flow cytometry (reference value: 0.5 %)", "format": "functional"}, "A-375 [29]": {"system": "A-375", "test": "Induction of autophagy in human A-375 cells assessed as decrease in phosphorylated p70S6K level at 7 uM incubated for 6 to 24 hrs by Western blotting analysis", "format": "functional, cell-based", "conditions": "time 6-24 hrs"}, "B16 [30]": {"system": "B16", "test": "Induction of apoptosis in mouse B16 cells assessed as late apoptotic cells at 7 uM measured after 24 hrs by Annexin-V-FITC/PI-staining based flow cytometry (reference value: 4.4 %)", "format": "functional"}, "B16 [31]": {"system": "B16", "test": "Induction of apoptosis in mouse B16 cells assessed as early apoptotic cells measured after 24 hrs by Annexin-V-FITC/PI-staining based flow cytometry (reference value: 0.9 %)", "format": "functional"}, "B16 [32]": {"system": "B16", "test": "Inhibition of autophagy in mouse B16 cells harbouring mCherry-EGFP-LC3 assessed as increase in proportion of autolysosomes at 6 uM for 8 to 24 hrs by laser scanning confocal microscopic analysis", "format": "functional, cell-based", "conditions": "time 8-24 hrs"}, "B16 [33]": {"system": "B16", "test": "Induction of apoptosis in mouse B16 cells assessed as early apoptotic cells at 6 uM measured after 24 hrs by Annexin-V-FITC/PI-staining based flow cytometry (reference value: 0.5 %)", "format": "functional"}, "B16 [34]": {"system": "B16", "test": "Induction of cell cycle arrest in mouse B16 cells assessed as accumulation at G2/M phase incubated for 24 hrs by PI staining based flow cytometry analysis (reference value: 0.88 %)", "format": "functional"}}, "note": "pIC50: −log10 of the molar value. Active and inactive are the calls of the source. No cut-off for these calls is given here.", "data": [{"smiles": "COc1ccc2cc1Oc1ccc(cc1)C[C@H]1c3cc(c(OC)cc3CCN1C)Oc1c(OC)c(OC)c(OC)c3c1[C@H](C2)N(C)CC3", "note": "[HERNANDEZINE]", "values": [{"measurement": "Activity", "setting": "A-375 [1]", "value": 70.87, "unit": "%"}, {"measurement": "Activity", "setting": "B16 [2]", "value": 16, "unit": "%"}, {"measurement": "Activity", "setting": "A-375 [3]", "value": "Active"}, {"measurement": "Activity", "setting": "B16 [4]", "value": "Active"}, {"measurement": "Activity", "setting": "A-375 [5]", "value": "Active"}, {"measurement": "Activity", "setting": "A-375 [6]", "value": "Active"}, {"measurement": "Activity", "setting": "A-375 [7]", "value": "Active"}, {"measurement": "pIC50", "setting": "B16 [8]", "value": 5.23}, {"measurement": "Activity", "setting": "A-375 [9]", "value": "Active"}, {"measurement": "Activity", "setting": "A-375 [10]", "value": "Active"}, {"measurement": "Activity", "setting": "A-375 [11]", "value": 18.9, "unit": "%"}, {"measurement": "Activity", "setting": "B16 [12]", "value": 8.47, "unit": "%"}, {"measurement": "Activity", "setting": "A-375 [13]", "value": 22.28, "unit": "%"}, {"measurement": "Activity", "setting": "B16 [14]", "value": 84.61, "unit": "%"}, {"measurement": "inhibition", "setting": "B16 [15]", "value": "Active"}, {"measurement": "Activity", "setting": "B16 [16]", "value": 23.42, "unit": "%"}, {"measurement": "Activity", "setting": "B16 [17]", "value": 4.58, "unit": "%"}, {"measurement": "Activity", "setting": "B16 [18]", "value": 3.27, "unit": "%"}, {"measurement": "Activity", "setting": "B16 [19]", "value": 78.59, "unit": "%"}, {"measurement": "Activity", "setting": "A-375 [20]", "value": 76.28, "unit": "%"}, {"measurement": "Activity", "setting": "B16 [21]", "value": 14.1, "unit": "%"}, {"measurement": "Activity", "setting": "A-375 [22]", "value": 47, "unit": "%"}, {"measurement": "Activity", "setting": "B16 [23]", "value": 72, "unit": "%"}, {"measurement": "Activity", "setting": "B16 [24]", "value": 19.2, "unit": "%"}, {"measurement": "pIC50", "setting": "HepG2", "value": 5.13}, {"measurement": "pIC50", "setting": "A-375 [25]", "value": 5.14}, {"measurement": "Activity", "setting": "A-375 [26]", "value": 4.1, "unit": "%"}, {"measurement": "Activity", "setting": "A-375 [27]", "value": "Active"}, {"measurement": "Activity", "setting": "B16 [28]", "value": 4.6, "unit": "%"}, {"measurement": "Activity", "setting": "A-375 [29]", "value": "Active"}, {"measurement": "Activity", "setting": "B16 [30]", "value": 25.8, "unit": "%"}, {"measurement": "Activity", "setting": "B16 [31]", "value": 25.6, "unit": "%"}, {"measurement": "inhibition", "setting": "B16 [32]", "value": "Active"}, {"measurement": "Activity", "setting": "B16 [33]", "value": 12.9, "unit": "%"}, {"measurement": "Activity", "setting": "B16 [34]", "value": 8.78, "unit": "%"}]}]}
